Several values for one entry are separate records, joined by “and”; a condition that tells them apart may be missing. Identical values can stand only once.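 Grown in 96-well plates, cells were treated for 48 hours with each compound at five concentrations. Insufficient inhibition: endpoint recorded as highest concentration tested. Here, GI50 denotes the concentration required for 50% inhibition of growth. TGI is the concentration that stops growth completely.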
Experiments:
Assay in all cases: NCI anticancer screen, dose series, 48 h
OVCAR-4 ovarian = tested on: OVCAR-4 ovarian
SW-620 colon = tested on: SW-620 colon
HCC-2998 colon = tested on: HCC-2998 colon
TK-10 renal = tested on: TK-10 renal
BT-549 breast = tested on: BT-549 breast
MCF7 breast = tested on: MCF7 breast
U251 CNS = tested on: U251 CNS
M14 melanoma = tested on: M14 melanoma
RPMI-8226 leukemia = tested on: RPMI-8226 leukemia
SF-295 CNS = tested on: SF-295 CNS

| Structure (SMILES) | GI50 (OVCAR-4 ovarian) | TGI (OVCAR-4 ovarian) | GI50 (SW-620 colon) [µM] | TGI (SW-620 colon) [µM] | GI50 (HCC-2998 colon) [µM] | TGI (HCC-2998 colon) [µM] | GI50 (TK-10 renal) | TGI (TK-10 renal) | GI50 (BT-549 breast) | TGI (BT-549 breast) | GI50 (MCF7 breast) | TGI (MCF7 breast) | GI50 (U251 CNS) | TGI (U251 CNS) | GI50 (M14 melanoma) [µM] | TGI (M14 melanoma) [µM] | GI50 (RPMI-8226 leukemia) [µM] | TGI (RPMI-8226 leukemia) [µM] | GI50 (SF-295 CNS) | TGI (SF-295 CNS) |
| --- | --- | --- | --- | --- | --- | --- | --- | --- | --- | --- | --- | --- | --- | --- | --- | --- | --- | --- | --- | --- |
| O=C(O)c1ccc2cccnc2c1O | 0.411 µM | > 100 µM | 2 | > 100 | 2.32 | 37.5 | 1.85 µM | > 100 µM | 0.561 µM | > 20 µM | 1.5 µM | > 100 µM | 0.672 µM | > 59.4 µM | 1.53 | 26.6 | 0.93 | > 21.1 | 0.0521 µM | 0.474 µM |
| Cn1c(O)c(N=NC(N)=S)c2ccccc21 | 82.1 µM | > 100 µM | 54.6 | > 100 | > 100 | > 100 | > 100 µM | > 100 µM | > 100 µM | > 100 µM | 20.3 µM | > 100 µM | 46.7 µM | > 100 µM | 95.9 | > 100 | > 100 | > 100 | 27.1 µM | > 100 µM |
| CC(=O)O[C@H](C[C@H](C(C)C)N(C)C(=O)[C@@H](NC(=O)[C@H]1CCCCN1C)C(C)(C)C)c1nc(C(=O)N[C@@H](Cc2ccccc2)C[C@H](C)C(=O)O)cs1 | 0.00525 µM | > 25 µM | < 0.0025 | > 25 | < 0.0025 | > 8.5 | 0.00962 µM | > 25 µM | 0.00304 µM | 0.0645 µM | < 0.0025 µM | > 25 µM | < 0.0025 µM | > 25 µM | < 0.0025 |  | < 0.0025 | > 25 | < 0.0025 µM | > 8.94 µM |
| COc1cccc2ccc3c(c12)C(=O)OC31CCc2c(C)cccc21 (centres undefined) |  | > 46.4 µM |  | > 46.4 |  | > 46.4 |  | > 100 µM |  | > 100 µM |  | 41.9 µM |  | > 46.4 µM |  | > 46.4 |  | 21.5 |  | > 46.4 µM |
| Cc1[nH]n(-c2ccccc2)c(=O)c1C(=O)c1ccccc1 | > 25 µM | > 25 µM | > 25 | > 25 | > 25 | > 25 | > 25 µM | > 25 µM | > 25 µM | > 25 µM | > 25 µM | > 25 µM | 16.2 µM | > 25 µM | > 25 | > 25 | > 25 | > 25 | > 25 µM | > 25 µM |
| COc1ccc(S(=O)(=O)n2c3ccccc3n3ncc(-c4nnc(C)o4)c23)cc1 | 12.7 µM | > 100 µM | 0.394 | > 100 | 1.38 | 16.8 | 25.4 µM | > 100 µM | 0.516 µM | 20 µM | 0.397 µM | > 69.8 µM | 0.473 µM | > 65.5 µM | 0.373 | 18.7 | 0.527 | 24.7 | 0.37 µM | 14.4 µM |
| O[C@H](CN1CC1)[C@@H](O)CN1CC1 | 15.4 µM | > 100 µM | 4.61 | > 100 | 13.8 | 51.3 | 21.3 µM | 77.6 µM | 12.6 µM | 60.9 µM | 1.84 µM | > 100 µM | 5.78 µM | 45.6 µM | 3.77 | 22.3 | 6.74 | > 100 | 0.382 µM | 1.71 µM |
| CN1N=Nc2c(C(F)(F)F)nn(-c3ccccc3)c2N(C)C1=O | > 100 µM | > 100 µM | > 100 | > 100 | > 100 | > 100 | > 100 µM | > 100 µM | > 100 µM | > 100 µM | > 100 µM | > 100 µM | > 100 µM | > 100 µM | > 100 | > 100 | > 56 | > 100 | > 100 µM | > 100 µM |
| O=C(O)c1cc2c(c3ccsc13)-c1ccccc1CC2 | 23.3 µM | > 100 µM | 40.2 | > 100 | 24.2 | 69.6 | 30.3 µM | 98.9 µM | 41.1 µM | > 100 µM | 42 µM | > 100 µM | 36.8 µM | > 100 µM | 42.2 | > 100 | 43.4 | > 100 | 29.5 µM | > 100 µM |
| CC(C)(F)C[C@H](N[C@@H](c1ccc(-c2ccc(S(C)(=O)=O)cc2)cc1)C(F)(F)F)C(=O)NC1(C#N)CC1 | 9.47 µM and 19.5 µM | 42.8 µM and 47.4 µM | > 100 | > 100 | > 100 | > 100 | > 55 µM and 31.1 µM | > 55 µM and 81.2 µM | 8.65 µM and 28.2 µM | 55 µM and 82.8 µM | 35 µM and > 100 µM | 55 µM and > 100 µM | 17.9 µM and 30.3 µM | 55 µM and > 100 µM | > 100 | > 100 | > 100 | > 100 | 18.8 µM and 17.9 µM | 55 µM and 50.9 µM |
| C=C1C[C@@H]2[C@H](CC[C@]3(C)C(=O)CC[C@@H]23)[C@@]2(C)C=CC(=O)C=C12 | 42.7 µM | > 100 µM | 34.7 | > 100 | 18.1 | 33.5 | 48.1 µM | > 100 µM | 28.9 µM | > 100 µM | 14.6 µM | > 62.2 µM | 23.5 µM | > 70.5 µM | 20.4 | > 48.7 | 19.7 | > 56.6 | 28.5 µM | 74.5 µM |
| N#C/C(=C\c1cccnc1)c1nc2ccccc2o1 | > 100 µM | > 100 µM | > 100 | > 100 | > 100 | > 100 | > 100 µM | > 100 µM | > 100 µM | > 100 µM | > 100 µM | > 100 µM | > 100 µM | > 100 µM | > 100 | > 100 | > 100 | > 100 | > 100 µM | > 100 µM |

Source: PubChem BioAssay (NCI)
